Measured values as given in the supplement of paper PMC5579334.
± gives the standard deviation of the averaged measurements.

Columns and labels:
HS-PSS [1] = assay: drug sensitivity score (DSS, CellTiter-Glo viability, 72 h) (DSS (dimensionless)); higher = more sensitive; extreme values may be limits of the assay
Method in brief: (§1)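 MPNST cell lines and primary human Schwann cells (750–1000 cells per well) went into 384-well plates preprinted with each compound at five concentrations in 10-fold steps. Plates were incubated 72 h at 37 °C, 5% CO2. Viability was read as CellTiter-Glo ATP luminescence, scaled between vehicle and positive-control wells, with duplicates averaged where present. Percent inhibition is at the top concentration; drug sensitivity score and relative IC50 (censored at top concentration) come from four-parameter logistic fits.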

HS-Sch-2 [2] = assay: as above
Method in brief: as §1

[3] = tested on: HSC1 (primary human Schwann cells); assay: as above
Method in brief: as §1

[4] = tested on: HSC2 (primary human Schwann cells); assay: as above
Method in brief: as §1

S1507-2 [5] = assay: as above
Method in brief: as §1

S462 [6] = assay: as above
Method in brief: as §1

ST8814 [7] = assay: as above
Method in brief: as §1

STS26T [8] = assay: as above
Method in brief: as §1

YST-1 [9] = assay: as above
Method in brief: as §1

HS-PSS [10] = assay: drug sensitivity score (DSS, CellTox-Green cytotoxicity, 72 h) (DSS (dimensionless)); higher = more cytotoxic; extreme values may be limits of the assay
Method in brief: (§2)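 MPNST cell lines and primary human Schwann cells were incubated 72 h at 37 °C in 384-well plates holding five 10-fold compound dilutions. CellTox-Green was added before seeding at a final 1:1000 dilution and reported fluorescence from DNA released by disrupted cells. Signals were scaled to vehicle and positive-control wells, and cultures failing plate quality control were dropped. Drug sensitivity score and relative IC50 come from four-parameter logistic fits, with IC50 censored at the top concentration.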

[11] = tested on: HSC1 (primary human Schwann cells); assay: as above
Method in brief: as §2

[12] = tested on: HSC2 (primary human Schwann cells); assay: as above
Method in brief: as §2

S1507-2 [13] = assay: as above
Method in brief: as §2

ST8814 [14] = assay: as above
Method in brief: as §2

STS26T [15] = assay: as above
Method in brief: as §2

HS-PSS [16] = assay: % inhibition of CellTiter-Glo viability at highest tested concentration (72 h), relative to DMSO and benzethonium chloride controls; higher = more inhibition
Method in brief: as §1

HS-Sch-2 [17] = assay: as above
Method in brief: as §1

[18] = tested on: HSC1 (primary human Schwann cells); assay: as above
Method in brief: as §1

[19] = tested on: HSC2 (primary human Schwann cells); assay: as above
Method in brief: as §1

S1507-2 [20] = assay: as above
Method in brief: as §1

S462 [21] = assay: as above
Method in brief: as §1

ST8814 [22] = assay: as above
Method in brief: as §1

STS26T [23] = assay: as above
Method in brief: as §1

YST-1 [24] = assay: as above
Method in brief: as §1

Row | SMILES | drug sensitivity score (HS-PSS [1]) | drug sensitivity score (HS-Sch-2 [2]) | drug sensitivity score [3] | drug sensitivity score [4] | drug sensitivity score (S1507-2 [5]) | drug sensitivity score (S462 [6]) | drug sensitivity score (ST8814 [7]) | drug sensitivity score (STS26T [8]) | drug sensitivity score (YST-1 [9]) | drug sensitivity score (HS-PSS [10]) | drug sensitivity score [11] | drug sensitivity score [12] | drug sensitivity score (S1507-2 [13]) | drug sensitivity score (ST8814 [14]) | drug sensitivity score (STS26T [15]) | % inhibition (HS-PSS [16]) [%] | % inhibition (HS-Sch-2 [17]) [%] | % inhibition [18] [%] | % inhibition [19] [%] | % inhibition (S1507-2 [20]) [%] | % inhibition (S462 [21]) [%] | % inhibition (ST8814 [22]) [%] | % inhibition (STS26T [23]) [%] | % inhibition (YST-1 [24]) [%]
1 | Cc1cc(Nc2cc(CN3CCOCC3)c3nc(C)c(Cc4ccc(Cl)cc4F)n3n2)n[nH]1 [Gandotinib] (max concentration tested 10000 nM) | 7.29 | 9.06 | 10.2 | 10.9 | 10.4 ± 1.9 | 11.7 ± 2.7 | 8.52 | 8.72 | 7.71 | 0.55 | 8.02 | 7.38 | 7.03 ± 1.3 | 5.3 | 3.96 | 68 | 96.6 | 103 | 103 | 101.6 ± 0.37 | 96.5 ± 2.7 | 97.2 | 68.9 | 70.5
2 | CC(C)c1cc(-c2n[nH]c(=O)n2-c2ccc3c(ccn3C)c2)c(O)cc1O [Ganetespib] (max concentration tested 1000 nM) | 13.9 | 19.6 | 21.5 | 20.6 | 15.5 | 19.2 | 20.7 | 17.6 | 13.7 | 4.34 | 21.1 | 20.9 | 12.7 | 17.2 | 10.9 | 84.2 | 101 | 99.1 | 98.5 | 94.5 | 99.6 | 101 | 94.1 | 79.1
3 | COc1cc2ncnc(Nc3ccc(F)c(Cl)c3)c2cc1OCCCN1CCOCC1 [Gefitinib] (max concentration tested 10000 nM) | 5.27 | 4.94 | 2.58 | 3.41 | 2.3 ± 1.1 | 1.43 ± 0.69 | 3.34 | 2.37 | 5.06 | 0 | 0 | 0 | 2.49 ± 3.5 | 5.95 | 0.896 | 61.4 | 60.2 | 46.2 | 54.7 | 49.1 ± 12 | 39.9 ± 12 | 68.4 | 53.6 | 46.2
4 | Nc1ccn([C@@H]2O[C@H](CO)[C@@H](O)C2(F)F)c(=O)n1 [Gemcitabine] (max concentration tested 1000 nM) | 14.7 | 25.2 | 26.5 | 27.7 | 31.7 ± 4.1 | 40.2 ± 1 | 27.7 | 28.3 | 19.7 | 7.61 | 23.3 | 18.5 | 14.3 ± 2 | 21 | 19.3 | 70.2 | 75 | 85 | 84.5 | 86.1 ± 3.8 | 99.9 ± 2.2 | 96.5 | 83.8 | 76.7
5 | CC(C)C[C@H](NC(=O)[C@@H](COC(C)(C)C)NC(=O)[C@H](Cc1ccc(O)cc1)NC(=O)[C@H](CO)NC(=O)[C@H](Cc1c[nH]c2ccccc12)NC(=O)[C@H](Cc1cnc[nH]1)NC(=O)[C@@H]1CCC(=O)N1)C(=O)N[C@@H](CCCNC(=N)N)C(=O)N1CCC[C@H]1C(=O)NNC(N)=O [Goserelin] (max concentration tested 10000 nM) | 0 | 0.06 | 0 | 0 | 0 | 0 | 0 | 0 | 0 | 0 | 0 | 0 | 0.454 ± 0.64 | 0 | 0 | -4.24 | 11.2 | 6.11 | -4.29 | -0.69 ± 5 | 0.735 ± 5 | 4.22 | 7.86 | -0.8
6 | NC(=O)NO [Hydroxyurea] (max concentration tested 100000 nM) | 0 | 0.56 | 0.337 | 0 | 0 | 0 | 0 | 0 | 0 | 0 | 0 | 0 | 0 | 0 | 0 | 9.89 | 20.8 | 16.3 | 9.58 | 5.18 ± 7.5 | -3.38 ± 4.4 | 3.1 | 3.66 | 8.97
7 | COc1cc2c(cc1-c1c(C)noc1C)ncc1[nH]c(=O)n([C@H](C)c3ccccn3)c12 [I-BET151] (max concentration tested 10000 nM) | 5.14 | 7.97 | 7.53 | 7.44 | 8.57 ± 0.91 | 5.52 ± 1.1 | 7.98 | 3.63 | 7.27 | 0 | 0.0349 | 0 | 6.26 ± 2.9 | 3.3 | 0 | 58.5 | 69.1 | 63.4 | 67.2 | 80.9 ± 2.5 | 54.1 ± 0.65 | 69.7 | 39.3 | 63.4
8 | O=C(O)CNC(=O)c1c(O)c2ccccc2n(Cc2ccccc2)c1=O [IOX-2] (max concentration tested 50000 nM) | 5.08 | 6.06 | 0 | 1.03 | 1.81 ± 1.5 | 0.3 ± 0.38 | 2.35 | 0.326 | 0.01 | 0 | 0 | 0 | 0 | 0.888 | 0 | 65 | 89 | 9.77 | 20.2 | 26.3 ± 12 | 12.2 ± 1.9 | 30.5 | 16.4 | 12
9 | C=CC(=O)N1CCC[C@@H](n2nc(-c3ccc(Oc4ccccc4)cc3)c3c(N)ncnc32)C1 [Ibrutinib] (max concentration tested 1000 nM) | 1.17 | 0 | 0 | 0 | 0 | 0 | 0 | 0 | 0 | 0 | 0 | 0 | 0 | 0 | 0 | 7.7 | 0.01 | -4.13 | -1.15 | -8.72 ± 4.8 | -0.0582 ± 2.1 | 2.81 | 2.46 | -1.93
10 | CC(=O)[C@]1(O)Cc2c(O)c3c(c(O)c2[C@@H](O[C@H]2C[C@H](N)[C@H](O)[C@H](C)O2)C1)C(=O)c1ccccc1C3=O [Idarubicin] (max concentration tested 1000 nM) | 10.1 | 15.7 | 18.1 | 17.6 | 17.1 ± 2.4 | 23.5 ± 0.84 | 16.2 | 20.5 | 24.2 | 5.11 | 8.63 | 7.65 | 10.6 ± 0.28 | 12.2 | 15.8 | 92.3 | 102 | 94.9 | 95.5 | 95.7 ± 1.7 | 99.5 ± 0.8 | 88 | 97.8 | 101
11 | CC[C@H](Nc1ncnc2[nH]cnc12)c1nc2cccc(F)c2c(=O)n1-c1ccccc1 [Idelalisib] (max concentration tested 10000 nM) | 0 | 0 | 0 | 0 | 7.05 ± 0.49 | 0 | 0.546 | 4.47 | 5.3 | 0 | 0 | 2.82 | 0 | 0 | 2.81 | 2.74 | 3.62 | 14.6 | 9.86 | 35.2 ± 8.5 | 19.1 ± 8.8 | 21.2 | 49.3 | 46.5
12 | O=P1(NCCCl)OCCCN1CCCl (configuration not stated) [Ifosfamide] (max concentration tested 10000 nM) | 0 | 0 | 0 | 0 | 0.228 ± 0.32 | 0 | 0 | 0 | 0.08 | 0 | 0 | 0 | 0 | 0 | 0 | -0.44 | -4.64 | 0.661 | -1.49 | 4.66 ± 16 | 2.94 ± 0.79 | 1.12 | -1.13 | 11.6
13 | Cc1ccc(NC(=O)c2ccc(CN3CCN(C)CC3)cc2)cc1Nc1nccc(-c2cccnc2)n1 [Imatinib] (max concentration tested 10000 nM) | 4.08 | 4.96 | 0 | 0 | 3.9 ± 0.28 | 0.251 ± 0.2 | 1.36 | 0.675 | 4.29 | 0.1 | 0 | 0 | 0.237 ± 0.34 | 1.72 | 0 | 58.8 | 89.5 | 9.96 | 8.82 | 49.5 ± 1.2 | 16.7 ± 2.7 | 33.4 | 23.5 | 53.8
